Measurements as given in ChEMBL document CHEMBL5726172, “Spiro-cyclic amine derivatives as S1P modulators” (2019).

Target: Sphingosine 1-phosphate receptor 5 (Homo sapiens, UniProt Q9H228)
Experiment: In Vitro Functional Activity (Agonism) on Human S1P5 Receptors: The CHO-human-S1P5-Aeqorin assay was bought from Euroscreen, Brussels (Euroscreen, Technical dossier, Human Lysophospholid S1P5 (Edg8) receptor, DNA clone and CHO AequoScreen™ recombinant cell-line, catalog no: ES-593-A, September 2006). Human-S1P5-Aequorin cells express mitochondrial targeted apo-Aequorin. Cells have to be loaded with coelanterazine, in order to reconstitute active Aequorin. After binding of agonists to the human S1P5 receptor the intracellular calcium concentration increases and binding of calcium to the apo-Aequorin/coelenterazine complex leads to an oxidation reaction of coelenterazine, which results in the production of apo-Aequorin, coelenteramide, CO2 and light ([…]max 469 nm). This luminescent response is dependent on the agonist concentration. Luminescence is measured using the MicroBeta Jet (Perkin Elmer). Agonistic effects of compounds are expressed as pEC50. Compounds were tested at a 10 points half log concentration range, and 3 independent experiments were performed in single point's measurements.
Format: cell-based

Chain of Sphingosine 1-phosphate receptor 5 (Q9H228 whole entry): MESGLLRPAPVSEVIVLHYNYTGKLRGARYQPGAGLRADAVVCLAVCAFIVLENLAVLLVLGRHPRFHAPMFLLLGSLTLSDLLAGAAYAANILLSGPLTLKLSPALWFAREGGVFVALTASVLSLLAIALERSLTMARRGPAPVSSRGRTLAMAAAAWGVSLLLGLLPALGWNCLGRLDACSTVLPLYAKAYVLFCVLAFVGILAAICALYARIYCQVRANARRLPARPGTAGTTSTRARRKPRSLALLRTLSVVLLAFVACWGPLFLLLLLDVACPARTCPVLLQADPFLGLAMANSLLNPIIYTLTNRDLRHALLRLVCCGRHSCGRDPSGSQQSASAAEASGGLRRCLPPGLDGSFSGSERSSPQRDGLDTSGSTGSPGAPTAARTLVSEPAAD

Structure (SMILES)	EC50
CC(C)c1cccc(F)c1COc1ccc2c(c1)OCC21CCN(CCC(=O)O)CC1	50.1 nM
O=C(O)CCN1CCCC2(COc3cc(OCc4c(Cl)cccc4C(F)(F)F)ccc32)C1 (configuration not stated)	50.1 nM
